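Protocol summary: plate cells (96-well), add compound at 5 concentrations, incubate 48 h, interpolate endpoints linearly. GI50 is the concentration that inhibits growth by half.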 The source made the active and inactive calls. Cut-off read from the data, not from the text of the source: active = GI50 up to about 1.1 µM and inactive = higher.
Key:
Experiment in all cases: growth of human tumour cells (NCI), 48 h
EKVX = system: EKVX
UO-31 = system: UO-31
DU-145 = system: DU-145
NCI-H226 = system: NCI-H226
A549 = system: A549
KM12 = system: KM12
NCI-H522 = system: NCI-H522
IGROV-1 = system: IGROV-1
MCF7 = system: MCF7
SK-MEL-2 = system: SK-MEL-2
CAKI-1 = system: CAKI-1
SW-620 = system: SW-620
Hs-578T = system: Hs-578T
NCI/ADR-RES = system: NCI/ADR-RES
UACC-62 = system: UACC-62
Malme-3M = system: Malme-3M
HOP-92 = system: HOP-92
OVCAR-4 = system: OVCAR-4
HT-29 = system: HT-29
A498 = system: A498

Measured: GI50

COC(=O)Oc1nn(C(=O)OC)c(=O)c2ccccc12
inactive: EKVX > 100 µM | UO-31 > 100 µM | DU-145 > 100 µM | NCI-H226 > 100 µM | A549 > 100 µM | KM12 > 100 µM | NCI-H522 > 100 µM | IGROV-1 > 100 µM | MCF7 > 100 µM | SK-MEL-2 > 100 µM | CAKI-1 > 100 µM | SW-620 > 100 µM | Hs-578T 65.8 µM | NCI/ADR-RES > 100 µM | UACC-62 > 100 µM | Malme-3M 42.4 µM

CC(C)(O)/C=C\P(=O)(O)O
inactive: EKVX > 100 µM | DU-145 > 100 µM | HOP-92 > 100 µM | NCI-H226 > 100 µM | A549 > 100 µM | OVCAR-4 > 100 µM | KM12 > 100 µM | NCI-H522 > 100 µM | IGROV-1 > 100 µM | MCF7 > 100 µM | SK-MEL-2 > 100 µM | CAKI-1 > 100 µM | SW-620 > 100 µM | HT-29 > 100 µM | Hs-578T > 100 µM | NCI/ADR-RES > 100 µM | UACC-62 > 100 µM | Malme-3M > 100 µM

COC1=C2C[C@](OC)(C#CC=CC#CC2O)CC1(C)C (some centres undefined)
inactive: EKVX > 100 µM | UO-31 28.6 µM | DU-145 > 100 µM | NCI-H226 > 100 µM | A549 40.4 µM | KM12 > 100 µM | NCI-H522 > 100 µM | IGROV-1 18.2 µM | MCF7 > 100 µM | CAKI-1 > 100 µM | SW-620 > 100 µM | HT-29 > 100 µM | Hs-578T > 100 µM | NCI/ADR-RES > 100 µM | UACC-62 34.6 µM | Malme-3M > 100 µM

C=C(c1ccccc1)[C@@]1(O)CC[C@@H]1N(CC#N)Cc1ccccc1
inactive: EKVX 37.7 µM | UO-31 26.7 µM | DU-145 80.7 µM | A498 13.6 µM | HOP-92 18.7 µM | NCI-H226 35.2 µM | A549 32.9 µM | OVCAR-4 15.3 µM | KM12 28.6 µM | NCI-H522 20.6 µM | IGROV-1 36.1 µM | SK-MEL-2 20.9 µM | CAKI-1 18.9 µM | SW-620 18.2 µM | HT-29 19.8 µM | Hs-578T 20.7 µM | NCI/ADR-RES 19.7 µM | UACC-62 17.9 µM | Malme-3M 3.23 µM

O=C(Cc1ccccc1)NNc1nc(NNC(=O)c2ccncc2)nc(Nc2ccc(Cl)cc2)n1
inactive: EKVX > 10 µM | UO-31 > 10 µM | DU-145 > 10 µM | HOP-92 > 10 µM | A549 > 10 µM | OVCAR-4 > 10 µM | KM12 > 10 µM | IGROV-1 > 10 µM | MCF7 > 10 µM | CAKI-1 > 10 µM | SW-620 > 10 µM | Hs-578T > 10 µM | NCI/ADR-RES 5.85 µM | UACC-62 9.68 µM | Malme-3M > 10 µM

CSC1(CC(=O)N2CCCCC2)C(=O)Nc2ccccc21 (centres undefined)
inactive: EKVX > 100 µM | UO-31 > 100 µM | DU-145 > 100 µM | A498 > 100 µM | NCI-H226 > 100 µM | A549 > 100 µM | OVCAR-4 > 100 µM | KM12 > 100 µM | IGROV-1 > 100 µM | MCF7 > 100 µM | SK-MEL-2 > 100 µM | SW-620 > 100 µM | HT-29 > 100 µM | Hs-578T > 100 µM | NCI/ADR-RES > 100 µM | UACC-62 > 100 µM | Malme-3M > 100 µM

CCOC(=O)c1cc2c(C(=O)c3ccc([N+](=O)[O-])cc3)c(C(C)=O)ccc2[nH]1
inactive: EKVX > 100 µM | UO-31 > 100 µM | DU-145 32.7 µM | A498 50.5 µM | HOP-92 13.2 µM | NCI-H226 51.4 µM | A549 39.4 µM | OVCAR-4 5.52 µM | KM12 > 100 µM | NCI-H522 8.2 µM | IGROV-1 26.9 µM | MCF7 > 100 µM | SK-MEL-2 55.8 µM | CAKI-1 18.3 µM | SW-620 > 100 µM | HT-29 > 100 µM | Hs-578T 9.84 µM | UACC-62 > 100 µM

CCOC(=O)CC(=O)C(=O)NN=C1NCCCN1
inactive: EKVX > 100 µM | UO-31 > 100 µM | DU-145 > 100 µM | HOP-92 > 100 µM | NCI-H226 > 100 µM | A549 > 100 µM | OVCAR-4 > 100 µM | KM12 > 100 µM | IGROV-1 > 100 µM | MCF7 > 100 µM | SK-MEL-2 > 100 µM | SW-620 > 100 µM | HT-29 > 100 µM | Hs-578T > 100 µM | UACC-62 > 100 µM | Malme-3M > 100 µM

Cn1c2ccccc2n2c3ncccc3c(=S)c(C#N)c12
inactive: EKVX > 100 µM | UO-31 > 100 µM | DU-145 > 100 µM | A498 > 100 µM | NCI-H226 > 100 µM | A549 > 100 µM | OVCAR-4 > 100 µM | KM12 > 100 µM | NCI-H522 > 100 µM | IGROV-1 > 100 µM | MCF7 > 100 µM | SK-MEL-2 > 100 µM | CAKI-1 > 100 µM | SW-620 > 100 µM | HT-29 > 100 µM | Hs-578T > 100 µM | NCI/ADR-RES > 100 µM | UACC-62 > 100 µM | Malme-3M > 100 µM

COC(=O)C1(NC(=O)C(CC(=O)OCc2ccccc2)NC(=O)OCc2ccccc2)CCCCCC1 (centres undefined)
inactive: EKVX 47.6 µM | UO-31 35.1 µM | DU-145 66.5 µM | HOP-92 36.6 µM | NCI-H226 29.4 µM | A549 32.8 µM | OVCAR-4 14.1 µM | KM12 50.1 µM | NCI-H522 69.3 µM | IGROV-1 37.6 µM | MCF7 33 µM | CAKI-1 20.8 µM | SW-620 42.8 µM | HT-29 22 µM | Hs-578T 15.6 µM | NCI/ADR-RES 21 µM | UACC-62 16.4 µM | Malme-3M 24.1 µM

CSc1nc(Nc2cccc(C(F)(F)F)c2)c2c(N)nn(C)c2n1
inactive: UO-31 > 100 µM | DU-145 > 100 µM | A498 48 µM | NCI-H226 > 100 µM | A549 43.6 µM | OVCAR-4 > 100 µM | KM12 > 100 µM | NCI-H522 34 µM | IGROV-1 > 100 µM | SK-MEL-2 > 100 µM | CAKI-1 > 100 µM | SW-620 > 100 µM | HT-29 51.9 µM | Hs-578T > 100 µM | NCI/ADR-RES 85.3 µM | UACC-62 > 100 µM | Malme-3M 59.4 µM

Reference: ChEMBL document CHEMBL1201862, “PubChem BioAssay data set” (2004)
